Article PMC6198970, “Safety, efficacy, and dose response of the maturation inhibitor GSK3532795 (formerly known as BMS-955176) plus tenofovir/emtricitabine once daily in treatment-naive HIV-1-infected adults: Week 24 primary analysis from a randomized Phase IIb trial” (PLoS ONE, 2018)

How the values were obtained:
Assay type in all cases: in vivo, HIV-1-infected adults
[1] = Adverse events through Week 24
Experimental: (§1) Physical examinations, measurement of vital signs, and clinical laboratory evaluations were performed at Weeks 4, 8, 12, 16 and 24, and participants were closely monitored for AEs and SAEs throughout. AEs were classified according to MedDRA version 19.0. The severity and relationship to study drug was assessed by the local investigator.

[2] = system: CD4+ T-cell count; assay: Change from baseline in CD4+ T-cell count; conditions: EFV arm; Week 24
Excerpt: The primary endpoint was determination of the proportion of participants with plasma HIV-1 RNA <40 copies/mL at Week 24 after treatment with GSK3532795 or efavirenz (EFV). Secondary endpoints included mean changes from baseline in CD4+ T-cell count and mean changes in the percentage of CD4+ T-cell count over time. Secondary safety endpoints included frequency of adverse events (AEs), serious AEs (SAEs), and AEs leading to discontinuation through Week 24. Further secondary endpoints included emergence of drug resistance. Exploratory endpoints included assessment of the impact of Gag polymorphisms on the efficacy of GSK3532795. […] In addition, though Gag A364 is essentially invariant across genotypes, it was included in the primary endpoint analysis since emergent resistance to GSK3532795 (both in vitro and in Phase IIa studies) mapped, in part, to the A364V change. Thus, our analysis at the Week 24 primary endpoint was limited to these four positions. Pharmacokinetic (PK) analyses were performed to evaluate treatment exposure and assess the dose proportionality of GSK3532795 when co-administered with tenofovir disoproxil fumarate (TDF)/emtricitabine (FTC).

[3] = system: HIV-1; assay: Protocol-defined virologic failure and drug resistance testing (GenoSure MG, PhenoSense); conditions: EFV arm; through Week 24
Excerpt: PDVF was defined as either: (1) confirmed HIV-1 RNA ≥40 copies/mL at any time after prior confirmed suppression to <40 copies/mL; or (2) a confirmed >1 log10 copies/mL above the nadir level. Genotypic information required for screening was generated using the GenoSure® MG assay; genotypic information and phenotypic observations during the treatment period were generated using the PhenoSense® combination resistance test.

[4] = Clinical laboratory evaluations
Experimental: as §1

[5] = system: HIV-1; assay: Phase IIb study 205891: plasma HIV-1 RNA response at Week 24 (FDA snapshot, observed); conditions: Week 24, mITT; GSK3532795: range across 60, 120, 180 mg arms; EFV 600 mg; each + TDF/FTC
Experimental: 205891 was a Phase IIb, randomized, active-controlled, double-blind trial performed at 58 sites in 12 countries across South America, North America, South Africa, and Europe. Participants were randomized 1:1:1:1 to one of four treatment arms; GSK3532795 at doses of 60 mg, 120 mg or 180 mg once daily (QD), and one reference arm with EFV at a dose of 600 mg QD, each given in combination with TDF/FTC 300/200 mg QD.
Participants attended study visits at screening, on Day 1, and once every 4 weeks from Week 4 to Week 24 (telephonic visits were conducted at Week 20). Participants were expected to continue treatment, then, through Week 96, with visit intervals every 8–12 weeks. A post-dose safety follow-up visit was also conducted 12 weeks after treatment discontinuation. Plasma HIV-1 RNA levels were quantified by the Abbott RealTime HIV-1 assay.
The FDA-defined snapshot algorithm was used for primary endpoint efficacy assessment, using the last plasma HIV-1 RNA value in the pre-defined Week 24 visit window (± 6 weeks) to determine response. The modified intent-to-treat (mITT) population consisted of participants who received at least one dose of GSK3532795 or EFV. […]

[6] = GSK3532795: range across 60, 120, 180 mg arms, EFV 600 mg
[7] = GSK3532795 arms pooled, EFV 600 mg, abstract

O=C1Nc2ccc(Cl)cc2[C@@](C#CC2CC2)(C(F)(F)F)O1 [EFV, efavirenz, reference compound]
Mean time to onset of first diarrhea event ([1]; EFV arm): 73.0 days
Mean duration of first diarrhea event ([1]; EFV arm (shortest)): 35.8 days
Incidence of dizziness relative to GSK3532795 ([1]; EFV arm vs GSK3532795 arms): ~10 fold
SAE considered related to study drug ([1]; GSK3532795 120 mg (no action taken), EFV (led to discontinuation)): increased hepatic enzyme
Grade 1–4-related abdominal pain [1, 6]: 0%
Grade 1–4-related diarrhea [1, 6]: 4%
Adverse events leading to discontinuation [1, 7]: 17%
Serious adverse events [1, 7]: 9%
Frequency of Grade 1–4-related AEs ([1]; GSK3532795 arms pooled, EFV 600 mg, through Week 24): 60%
Mean change from baseline in CD4+ T-cell count (SD) [2]: 134.7 (SD 151.70) cells/μL
Rate of protocol-defined virologic failure (PDVF) [3]: 2% (1/53)
Mean increase in total cholesterol ([4]; EFV arm, baseline to Week 24): 17.6 mg/dL
Mean increase in triglyceride levels ([4]; EFV arm, baseline to Week 24): 41.1 mg/dL
Hepatic event attributed to EFV ([4]; one participant, discontinued): several Grade 4 liver chemistry elevations
Participants achieving HIV-1 RNA <40 copies/mL [5]: 77%
